Data reported in patent publication US5688787A, “Substituted β-lactam compounds useful as hypochlesterolemic agents and processes for the preparation thereof” (priority 1996, dated 1997).
Like-named read-outs stand apart in the source and are kept apart here.

Tested on: Hyperlipidemic Hamster
Assay: In Vivo Assay of Hypolipidemic Agents Using the Hyperlipidemic Hamster
Conditions: Mesocricetus auratus, po, 168 h, 7 days, percent change versus control, negative = lowering; for change in vivo at 50 mg/kg: 50 mg/kg once daily oral; for change in vivo at 3 mg/kg: 3 mg/kg once daily oral; for change in vivo at 10 mg/kg: 10 mg/kg once daily oral; for change in vivo at 40 mg/kg: 40 mg/kg once daily oral
Experimental: In Vivo Assay of Hypolipidemic Agents Using the Hyperlipidemic Hamster
Hamsters are separated into groups of six and given a controlled cholesterol diet (Purina Chow #5001 containing 0.5% cholesterol) for seven days. Diet consumption is monitored to determine dietary cholesterol exposure in the face of test compounds. The animals are dosed with the test compound once daily beginning with the initiation of diet. Dosing is by oral gavage of 0.2mL of corn oil alone (control group) or solution (or suspension) of test compound in corn oil. All animals roodbund or in poor physical condition are euthanized. After seven days, the animals are anesthetized by IM injection of ketamine and sacrificed by decapitation. Blood is collected into vacutainer tubes containing EDTA for plasma lipid analysis and the liver excised for tissue lipid analysis. Data is reported as percent reduction of lipid versus control.
Using the test procedures described above, the following in vitro and in vivo data were obtained for the preferred compounds, which are referred to in the following table by the corresponding example numbers. For the in vitro ACAT data, negative percent inhibition denotes apparent stimulation,while positive numbers denote inhibition. For the in vivo results, data is reported as percent change versus control, therefore, negative numbers indicate a positive lipid-lowering effect.

[1] = read-out: % Reduction (in vivo) Cholest. Esters
[2] = read-out: % Reduction (in vivo) Serum Cholest.

SMILES	change in vivo at 50 mg/kg [1]	change in vivo at 50 mg/kg [2]	further results
CCOC(=O)c1ccc(N2C(=O)[C@H](CCCc3ccccc3)[C@H]2c2ccc(OC)cc2)cc1 (relative stereo) [Example 7A]	-54%	-22%	–
COc1ccc([C@@H]2[C@@H](CCCc3ccccc3)C(=O)N2c2cccc([N+](=O)[O-])c2)cc1 (relative stereo) [Example 7B]	-45%	-13%	–
CCN(CC)c1ccc(N2C(=O)[C@H](CCCc3ccccc3)[C@H]2c2ccc(OC)cc2)cc1 (relative stereo) [Example 7C]	-95%	-51%	–
COc1ccc([C@@H]2[C@@H](CCCc3ccccc3)C(=O)N2c2ccc(C#N)cc2)cc1 (relative stereo) [Example 7D]	-74%	-35%	–
COc1ccc([C@@H]2[C@@H](CCCc3ccccc3)C(=O)N2c2cc(F)cc(F)c2)cc1 (relative stereo) [Example 7E]	-93%	-52%	–
COc1ccc([C@@H]2[C@@H](CCCc3ccccc3)C(=O)N2c2ccc(OC)nc2)cc1 (relative stereo) [Example 7F]	-26%	0%	–
COC(=O)C=C(C)N[C@@H]1C(=O)N(c2ccccc2)[C@@H]1c1ccc(OC)cc1 (relative stereo) [Example 7J]	-27%	-21%	–
COc1ccc([C@@H]2[C@H](N(C)CCc3ccccc3)C(=O)N2c2ccccc2)cc1 (relative stereo) [Example 7K]	-32%	0%	–
COc1ccc([C@@H]2[C@H](N3C(=O)c4ccccc4C3=O)C(=O)N2c2ccccc2)cc1 (relative stereo) [Example 7L]	0%	0%	–
COc1ccc(N2C(=O)[C@H](CCCc3ccccc3)[C@H]2c2ccc(OC(C)C)cc2)cc1 (relative stereo) [Example 7M]	-94%	-38%	–
CCOC(=O)[C@@H]1[C@H](CCCc2ccccc2)C(=O)N1c1ccc(OC)cc1 (relative stereo) [Example 7N]	0%	-11%	–
COc1ccc([C@@H]2[C@@H](CCCc3ccccc3)C(=O)N2c2ccccc2)cn1 (relative stereo) [Example 7O]	-20%	-14%	–
CCCOc1ccc([C@@H]2[C@@H](CCCc3ccccc3)C(=O)N2c2ccc(OC)cc2)cc1 (relative stereo) [Example 7P]	-95%	-40%	–
COc1ccc(N2C(=O)[C@H](CCCc3ccccc3)[C@H]2c2ccc(OC)c(C)c2)cc1 (relative stereo) [Example 7Q]	0%	-16%	–
COC(=O)c1ccc([C@@H]2[C@@H](CCCc3ccccc3)C(=O)N2c2ccccc2)cc1 (relative stereo) [Example 7R]	-80%	-35%	–
COc1ccc(N2C(=O)[C@H](CCCc3ccccc3)[C@H]2c2ccc(OC)c(F)c2)cc1 (relative stereo) [Example 7S]	-82%	-27%	–
COCOc1ccc([C@@H]2[C@@H](CCCc3ccccc3)C(=O)N2c2ccccc2)cc1 (relative stereo) [Example 7T]	-93%	-49%	–
COc1ccc(N2C(=O)[C@H](CCCc3ccccc3)[C@H]2c2ccc(N(C)C)cc2)cc1 (relative stereo) [Example 7U]	-60%	-29%	–

SMILES	change in vivo at 50 mg/kg [1]	change in vivo at 50 mg/kg [2]	further results
COc1ccc(C(=O)[C@@H]2[C@@H](CCCc3ccccc3)C(=O)N2c2ccc(OC)cc2)cc1 (relative stereo) [Example 7V]	0%	0%	–
COc1ccc(C(=O)[C@@H]2[C@H](CCCc3ccccc3)C(=O)N2c2ccc(OC)cc2)cc1 (relative stereo) [Example 7W]	0%	12%	–
COc1ccc(N2C(=O)[C@H](CCCc3ccccc3)[C@H]2c2ccc(OC)cc2OC)cc1 (relative stereo) [Example 7X]	-78%	-26%	–
CCOc1ccc([C@@H]2[C@@H](CCCc3ccccc3)C(=O)N2c2ccccc2)cc1 (relative stereo) [Example 7Y]	-94%	-53%	change in vivo at 3 mg/kg [1]: -55%; change in vivo at 3 mg/kg [2]: -22%; change in vivo at 10 mg/kg [1]: -79%; change in vivo at 10 mg/kg [2]: -27%
COc1ccc([C@@H]2[C@@H](CCCc3ccc([N+](=O)[O-])cc3)C(=O)N2c2ccc(OC)cc2)cc1 (relative stereo) [Example 7Z]	-39%	-21%	–
COc1ccc([C@@H]2[C@@H](CCCc3ccccc3)C(=O)N2c2ccccc2)cc1 (relative stereo) [Example 7]	–	–	change in vivo at 3 mg/kg [1]: -50%; change in vivo at 3 mg/kg [2]: -30%; change in vivo at 10 mg/kg [1]: -89.5%; change in vivo at 10 mg/kg [2]: -41%; change in vivo at 40 mg/kg [1]: -95%; change in vivo at 40 mg/kg [2]: -49%
COc1ccc([C@@H]2[C@@H](CCCc3ccc(N)cc3)C(=O)N2c2ccc(OC)cc2)cc1 (relative stereo) [Example 8E]	-32%	0%	–
COc1ccc([C@@H]2[C@H](N)C(=O)N2c2ccccc2)cc1 (relative stereo) [Example 11]	0%	-8%	–
CCC(=O)N[C@@H]1C(=O)N(c2ccccc2)[C@@H]1c1ccc(OC)cc1 (relative stereo) [Example 12A]	-39%	-14%	–
COc1ccc([C@@H]2[C@H](NC(=O)COc3ccccc3)C(=O)N2c2ccccc2)cc1 (relative stereo) [Example 12B]	-26%	0%	–
COc1ccc([C@@H]2[C@H](NC(=O)OCc3ccccc3)C(=O)N2c2ccccc2)cc1 (relative stereo) [Example 12C]	0%	0%	–
COc1ccc([C@@H]2[C@H](NC(=O)N(C)c3ccccc3)C(=O)N2c2ccccc2)cc1 (relative stereo) [Example 12D]	0%	0%	–
COc1ccc([C@@H]2[C@H](NC(=O)Cc3ccccc3)C(=O)N2c2ccccc2)cc1 (relative stereo) [Example 12]	0%	-12%	–
COc1ccc([C@@H]2[C@H](NS(=O)(=O)c3ccc(C)cc3)C(=O)N2c2ccccc2)cc1 (relative stereo) [Example 13]	0%	-18%	–
COc1ccc(CN[C@@H]2C(=O)N(c3ccccc3)[C@@H]2c2ccc(OC)cc2)cc1 (relative stereo) [Example 14A]	-78%	31%	–
COc1ccc([C@@H]2[C@H](NCC(c3ccccc3)c3ccccc3)C(=O)N2c2ccccc2)cc1 (relative stereo) [Example 14B]	0%	0%	–
COc1ccc([C@@H]2[C@H](NCCCC3CCCCC3)C(=O)N2c2ccccc2)cc1 (relative stereo) [Example 14C]	0%	0%	–
